Data reported in US20240309038A1, “NOVEL GALACTOSIDE INHIBITOR OF GALECTINS” (GALECTO BIOTECH AB, priority 2020, published 2024).

target: Gal-3 (Homo sapiens, UniProt P17931); experiment: Fluorescence anisotropy assay, inhibition of galectin / fluorescein tagged saccharide probe interaction; assay type: binding
Experimental: The affinity of Example 1-59 for galectins were determined by a fluorescence anisotropy assay where the compound was used as an inhibitor of the interaction between galectin and a fluorescein tagged saccharide probe as described Sörme, P., Kahl-Knutsson, B., Huflejt, M., Nilsson, U. J., and Leffler H. (2004) Fluorescence polarization as an analytical tool to evaluate galectin-ligand interactions. Anal. Biochem. 334: 36-47, (Sarme et al., 2004)

Sequence of Gal-3 (P17931 whole entry, species assumed): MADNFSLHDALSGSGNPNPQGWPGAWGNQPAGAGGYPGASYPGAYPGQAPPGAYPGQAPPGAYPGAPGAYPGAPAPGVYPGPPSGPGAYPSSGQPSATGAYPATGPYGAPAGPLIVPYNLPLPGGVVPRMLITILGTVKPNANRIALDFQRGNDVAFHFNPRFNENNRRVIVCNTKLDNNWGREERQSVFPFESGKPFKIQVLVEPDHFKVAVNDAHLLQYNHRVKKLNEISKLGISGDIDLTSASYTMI

Structure (SMILES)	Kd
Cc1nc([C@@H]2OC(CO)[C@H](O)C(n3cc(-c4ccc(C(F)(F)F)cc4)cn3)C2O)n(-c2cc(Cl)ccc2C(F)(F)F)n1 (stereo in doubt) [Example 56, 5-Chloro-1-{5-{3-deoxy-3-{4-[4-(trifluoromethyl)phenyl]-1H-1,2-pyrazol-1-yl}-β-D-galactopyranosyl}-3-methyl-1H-1,2,4-triazol-1-yl}-2-(trifluoromethyl)benzene]	110 nM
Cc1nc([C@@H]2OC(CO)[C@H](O)C(n3cc(-c4cc(F)c(F)c(F)c4)cn3)C2O)n(-c2cc(Br)ccc2C#N)n1 (stereo in doubt) [Example 26, 5-Bromo-2-cyano-1-{5-{3-deoxy-3-[4-(3,4,5-trifluorophenyl)-1H-1,2-pyrazol-1-yl]-β-D-galactopyranosyl}-3-methyl-1H-1,2,4-triazol-1-yl}benzene]	15 nM
Cc1nc([C@@H]2OC(CO)[C@H](O)C(n3cc(-c4cc(F)c(Cl)cn4)cn3)C2O)n(-c2cc(Cl)ccc2C(F)(F)F)n1 (stereo in doubt) [Example 14, 1-{5-{3-[4-(5-Chloro-4-fluoropyridin-2-yl)-1H-1,2-pyrazol-1-yl]-3-deoxy-β-D-galactopyranosyl}-3-methyl-1H-1,2,4-triazol-1-yl}-5-chloro-2-(trifluoromethyl)benzene]	24 nM
Cc1nc([C@@H]2OC(CO)[C@H](O)C(n3cc(-c4cc(F)c(F)c(F)c4)cn3)C2O)n(-c2cc(Br)cnc2C#N)n1 (stereo in doubt) [Example 22, 5-Bromo-2-cyano-3-{5-{3-deoxy-3-[4-(3,4,5-trifluorophenyl)-1H-1,2-pyrazol-1-yl]-β-D-galactopyranosyl}-3-methyl-1H-1,2,4-triazol-1-yl}pyridine]	33 nM
CCc1nc2ccc(-n3nc(C)nc3[C@@H]3OC(CO)[C@H](O)C(n4cc(-c5cc(F)c(F)c(F)c5)cn4)C3O)cc2s1 (stereo in doubt) [Example 35, 6-{5-{3-Deoxy-3-[4-(3,4,5-trifluorophenyl)-1H-1,2-pyrazol-1-yl]-β-D-galactopyranosyl}-3-methyl-1H-1,2,4-triazol-1-yl}-2-ethylbenzothiazole]	12 nM
CCOC(=O)c1nn(C2C(O)[C@H](c3nc(C)nn3-c3cc(Cl)ccc3C(F)(F)F)OC(CO)[C@@H]2O)cc1-c1cc(F)c(Cl)c(F)c1 (stereo in doubt) [Example 29, 1-{5-{3-[4-(4-Chloro-3,5-difluorophenyl)-3-ethoxycarbonyl-1H-1,2-pyrazol-1-yl]-3-deoxy-β-D-galactopyranosyl}-3-methyl-1H-1,2,4-triazol-1-yl}-5-chloro-2-(trifluoromethyl)benzene]	28 nM
Cc1nc([C@@H]2OC(CO)[C@H](O)C(n3cc(-c4cc(C)c(Cl)cn4)cn3)C2O)n(-c2cc(Cl)ccc2C(F)(F)F)n1 (stereo in doubt) [Example 16, 1-{5-{3-[4-(5-Chloro-4-methylpyridin-2-yl)-1H-1,2-pyrazol-1-yl]-3-deoxy-β-D-galactopyranosyl}-3-methyl-1H-1,2,4-triazol-1-yl}-5-chloro-2-(trifluoromethyl)benzene]	140 nM
Cc1nc([C@@H]2OC(CO)[C@H](O)C(n3cc(-c4cc(F)c(F)c(F)c4)cn3)C2O)n(-c2ccc3nc(C)sc3c2Cl)n1 (stereo in doubt) [Example 40, 7-Chloro-6-{5-{3-deoxy-3-[4-(3,4,5-trifluorophenyl)-1H-1,2-pyrazol-1-yl]-β-D-galactopyranosyl}-3-methyl-1H-1,2,4-triazol-1-yl}-2-methylbenzothiazole]	260 nM
Cc1nc([C@@H]2OC(CO)[C@H](O)C(n3cc(-c4cc(F)c(Cl)c(F)c4)c(C(N)=O)n3)C2O)n(-c2cc(Cl)ccc2C(F)(F)F)n1 (stereo in doubt) [Example 32, 1-{5-{3-[3-Aminocarbonyl-4-(4-chloro-3,5-difluorophenyl)-1H-1,2-pyrazol-1-yl]-3-deoxy-β-D-galactopyranosyl}-3-methyl-1H-1,2,4-triazol-1-yl}-5-chloro-2-(trifluoromethyl)benzene]	23 nM
Cc1nc([C@@H]2OC(CO)[C@H](O)C(n3cc(-c4cc(F)c(F)c(F)c4)cn3)C2O)n(-c2ncc(Cl)s2)n1 (stereo in doubt) [Example 33, 5-Chloro-2-{5-{3-deoxy-3-[4-(3,4,5-trifluorophenyl)-1H-1,2-pyrazol-1-yl]-β-D-galactopyranosyl}-3-methyl-1H-1,2,4-triazol-1-yl}-thiazole]	520 nM
Cc1nc([C@@H]2OC(CO)[C@H](O)C(n3cc(-c4cc(F)c(F)c(F)c4)cn3)C2O)n(-c2cc(C#N)c3nc(C)sc3c2)n1 (stereo in doubt) [Example 42, 4-Cyano-6-{5-{3-deoxy-3-[4-(3,4,5-trifluorophenyl)-1H-1,2-pyrazol-1-yl]-β-D-galactopyranosyl}-3-methyl-1H-1,2,4-triazol-1-yl}-2-methylbenzothiazole]	12 nM
Cc1nc([C@@H]2OC(CO)[C@H](O)C(n3cc(-c4cc(F)c(F)c(F)c4)c(-c4ccccc4)n3)C2O)n(-c2cc(Cl)ccc2C(F)(F)F)n1 (stereo in doubt) [Example 47, 5-Chloro-1-{5-{3-deoxy-3-[4-(3,4,5-trifluorophenyl)-3-phenyl-1H-1,2-pyrazol-1-yl]-β-D-galactopyranosyl}-3-methyl-1H-1,2,4-triazol-1-yl}-2-(trifluoromethyl)benzene]	80 nM
Cc1nc([C@@H]2OC(CO)[C@H](O)C(n3cc(-c4cc(F)c(F)c(F)c4)cn3)C2O)n(-c2cc(Cl)cnc2C#N)n1 (stereo in doubt) [Example 21, 5-Chloro-2-cyano-3-{5-{3-deoxy-3-[4-(3,4,5-trifluorophenyl)-1H-1,2-pyrazol-1-yl]-β-D-galactopyranosyl}-3-methyl-1H-1,2,4-triazol-1-yl}pyridine]	82 nM
Cc1nc([C@@H]2OC(CO)[C@H](O)C(n3cc(-c4cc(F)ccn4)cn3)C2O)n(-c2cc(Cl)ccc2C(F)(F)F)n1 (stereo in doubt) [Example 7, 5-Chloro-1-{5-{3-deoxy-3-[4-(4-fluoropyridin-2-yl)-1H-1,2-pyrazol-1-yl]-β-D-galactopyranosyl}-3-methyl-1H-1,2,4-triazol-1-yl}-2-(trifluoromethyl)benzene]	82 nM
Cc1nc([C@@H]2OC(CO)[C@H](O)C(n3cc(-c4cccc(F)n4)cn3)C2O)n(-c2cc(Cl)ccc2C(F)(F)F)n1 (stereo in doubt) [Example 6, 5-Chloro-1-{5-{3-deoxy-3-[4-(6-fluoropyridin-2-yl)-1H-1,2-pyrazol-1-yl]-β-D-galactopyranosyl}-3-methyl-1H-1,2,4-triazol-1-yl}-2-(trifluoromethyl)benzene]	130 nM

Second part, the compound after the results:

Kd	Structure (SMILES)
12 nM	Cc1nc([C@@H]2OC(CO)[C@H](O)C(n3cc(-c4cc(F)c(Cl)c(F)c4)c(C#N)n3)C2O)n(-c2cc(Cl)ccc2C(F)(F)F)n1 (stereo in doubt) [Example 31, 1-{5-{3-[4-(4-Chloro-3,5-difluorophenyl)-3-cyano-1H-1,2-pyrazol-1-yl]-3-deoxy-β-D-galactopyranosyl}-3-methyl-1H-1,2,4-triazol-1-yl}-5-chloro-2-(trifluoromethyl)benzene]
9 nM	Cc1nc([C@@H]2OC(CO)[C@H](O)C(n3cc(-c4cc(F)c(F)c(F)c4)cn3)C2O)n(-c2cc(Cl)ccc2C(F)(F)F)n1 (stereo in doubt) [Example 3, 5-Chloro-1-{5-{3-deoxy-3-[4-(3,4,5-trifluorophenyl)-1H-1,2-pyrazol-1-yl]-β-D-galactopyranosyl}-3-methyl-1H-1,2,4-triazol-1-yl}-2-(trifluoromethyl)benzene]
2 nM	Cc1nc([C@@H]2OC(CO)[C@H](O)C(n3cc(-c4cc(F)c(F)c(F)c4)cn3)C2O)n(-c2cc(Br)ccc2C(F)(F)F)n1 (stereo in doubt) [Example 24, 5-Bromo-1-{5-{3-deoxy-3-[4-(3,4,5-trifluorophenyl)-1H-1,2-pyrazol-1-yl]-β-D-galactopyranosyl}-3-methyl-1H-1,2,4-triazol-1-yl}-2-(trifluoromethyl)benzene]
11 nM	Cc1nc([C@@H]2OC(CO)[C@H](O)C(n3cc(-c4ccc(C)c(F)c4)cn3)C2O)n(-c2cc(Cl)ccc2C(F)(F)F)n1 (stereo in doubt) [Example 57, 5-Chloro-1-{5-{3-deoxy-3-[4-(3-fluoro-4-methylphenyl)-1H-1,2-pyrazol-1-yl]-β-D-galactopyranosyl}-3-methyl-1H-1,2,4-triazol-1-yl}-2-(trifluoromethyl)benzene]
11 nM	Cc1nc([C@@H]2OC(CO)[C@H](O)C(n3cc(-c4cc(F)c(Cl)c(F)c4)c(C)n3)C2O)n(-c2cc(Cl)ccc2C(F)(F)F)n1 (stereo in doubt) [Example 12, 1-{5-{3-[4-(4-Chloro-3,5-difluorophenyl)-3-methyl-1H-1,2-pyrazol-1-yl]-3-deoxy-β-D-galactopyranosyl}-3-methyl-1H-1,2,4-triazol-1-yl}-5-chloro-2-(trifluoromethyl)benzene]
10 nM	Cc1nc([C@@H]2OC(CO)[C@H](O)C(n3cc(-c4cc(F)c(F)c(F)c4)cn3)C2O)n(-c2cc(F)c3nc(C)sc3c2)n1 (stereo in doubt) [Example 39, 6-{5-{3-Deoxy-3-[4-(3,4,5-trifluorophenyl)-1H-1,2-pyrazol-1-yl]-β-D-galactopyranosyl}-3-methyl-1H-1,2,4-triazol-1-yl}-4-fluoro-2-methylbenzothiazole]
7 nM	Cc1nnc([C@@H]2OC(CO)[C@H](O)C(n3cc(-c4cc(F)c(Cl)c(F)c4)cn3)C2O)n1-c1cc(Cl)ccc1C(F)(F)F (single isomer, unassigned) [Example 11, 1-{3-{3-[4-(4-Chloro-3,5-difluorophenyl)-1H-1,2-pyrazol-1-yl]-3-deoxy-β-D-galactopyranosyl}-5-methyl-4H-1,2,4-triazol-4-yl}-5-chloro-2-(trifluoromethyl)benzene]
11 nM	Cc1nc([C@@H]2OC(CO)[C@H](O)C(n3cc(-c4cc(F)c(F)c(F)c4)cn3)C2O)n(-c2cc(Br)cnc2C(F)(F)F)n1 (stereo in doubt) [Example 25, 5-Bromo-3-{5-{3-deoxy-3-[4-(3,4,5-trifluorophenyl)-1H-1,2-pyrazol-1-yl]-β-D-galactopyranosyl}-3-methyl-1H-1,2,4-triazol-1-yl}-2-(trifluoromethyl)pyridine]
